Measured values taken from ChEMBL document CHEMBL3297657, “Synthesis and antitumor activities of novel α-aminophosphonate derivatives containing an alizarin moiety” (Eur J Med Chem, 2014).
Calls of active or inactive are those of the source. The calls are words filed in the database; no cut-off is given here.

How the values were obtained:
[1] = tested on: HeLa; assay: cells; details: Homo sapiens, 48 h
Description: Cytotoxicity against human HeLa cells after 48 hrs by MTT assay

[2] = tested on: HUVEC; assay: Cytotoxicity against HUVEC after 48 hrs by MTT assay; type: cell-based; details: Homo sapiens
[3] = tested on: A549; assay: cells; details: Homo sapiens, A549, 48 h
Description: Cytotoxicity against human A549 cells after 48 hrs by MTT assay

[4] = tested on: HCT-116; assay: cells; details: Homo sapiens, HCT-116, 48 h
Description: Cytotoxicity against human HCT116 cells after 48 hrs by MTT assay

[5] = tested on: HepG2; assay: cells; details: Homo sapiens, HepG2, 48 h
Description: Cytotoxicity against human HepG2 cells after 48 hrs by MTT assay

[6] = tested on: NCI-H460; assay: Cytotoxicity against human NCI-H460 cells after 48 hrs by MTT assay; type: functional, cell-based; details: NCI-H460, 48 h
[7] = tested on: MGC-803; assay: Cytotoxicity against human MGC803 cells after 48 hrs by MTT assay; type: functional, cell-based; details: MGC-803, 48 h
[8] = tested on: CNE; assay: Cytotoxicity against human CNE cells after 48 hrs by MTT assay; type: functional, cell-based
[9] = tested on: KB; assay: Cytotoxicity against human KB cells after 48 hrs by MTT assay; type: functional, cell-based
[10] = tested on: NCI-H460; assay: Induction of apoptosis in human NCI-H460 cells assessed as early apoptotic cells at 5 to 20 uM after 24 hrs by Annexin V/propidium iodide staining-based flow cytometry relative to control; type: functional, cell-based

Row | Structure (SMILES) | IC50 [1] [µM] | IC50 [2] [µM] | IC50 [3] [µM] | IC50 [4] [µM] | IC50 [5] [µM] | IC50 [6] [µM] | IC50 [7] [µM] | IC50 [8] [µM] | IC50 [9] [µM] | Activity [10]
1 | CCOP(=O)(OCC)C(NC(=O)C(C)Oc1ccc2c(c1O)C(=O)c1ccccc1C2=O)c1ccc2ccccc2c1 (configuration not stated) | 23.6 | 38.9 | 25.2 | 23 | 38.9 | 14.1 | 5.6 | 49.4 | 1.21 | 
2 | CCOP(=O)(OCC)C(NC(=O)COc1ccc2c(c1O)C(=O)c1ccccc1C2=O)c1ccc(Br)cc1 (configuration not stated) | > 50 | > 50 | 45.1 | 45.8 | > 50 | 46.2 | 35.2 |  | 3.26 | 
3 | CCOP(=O)(OCC)C(NC(=O)C(C)Oc1ccc2c(c1O)C(=O)c1ccccc1C2=O)c1cccc(C)c1 (configuration not stated) | 17.4 | > 50 | 25.6 | 36.2 | > 50 | 9.31 | 8.02 | 30.5 | 9.68 | Active
4 | CCOP(=O)(OCC)C(NC(=O)COc1ccc2c(c1O)C(=O)c1ccccc1C2=O)c1ccc(C)cc1 (configuration not stated) | > 50 | > 50 | 33.8 | 13.7 | > 50 | 12.2 | 12.6 |  | 9.37 | 
5 | CCOP(=O)(OCC)C(NC(=O)C(C)Oc1ccc2c(c1O)C(=O)c1ccccc1C2=O)c1ccc(OC)cc1 (configuration not stated) | 14.7 | > 50 | 33.7 | 13.7 | > 50 | 14.3 | 22.5 | > 50 | 1 | 
6 | CCOP(=O)(OCC)C(NC(=O)COc1ccc2c(c1O)C(=O)c1ccccc1C2=O)c1ccccc1Cl (configuration not stated) | > 50 | > 50 | 38 | 16.3 | > 50 | 21.2 | 39.2 |  | 1.55 | 
7 | CCOP(=O)(OCC)C(NC(=O)COc1ccc2c(c1O)C(=O)c1ccccc1C2=O)c1ccccc1Br (configuration not stated) | > 50 | > 50 | 35.8 | 17.2 | > 50 | 12 | 18.7 |  | 6.64 | 
8 | CCOP(=O)(OCC)C(NC(=O)COc1ccc2c(c1O)C(=O)c1ccccc1C2=O)c1ccccc1 (configuration not stated) | 18.5 | > 50 | 12.1 | 17.4 | 41.4 | 11.9 | 13 |  | 6.7 | 
9 | CCOP(=O)(OCC)C(NC(=O)C(C)Oc1ccc2c(c1O)C(=O)c1ccccc1C2=O)c1ccccc1Br (configuration not stated) | 41.6 | 24.1 | 11.4 | 7.31 | 24.1 | 4.11 | 15.1 | 47.3 | 0.13 | Active
10 | CCOP(=O)(OCC)C(NC(=O)COc1ccc2c(c1O)C(=O)c1ccccc1C2=O)c1ccccc1OC (configuration not stated) | > 50 | > 50 | 39 | 30.2 | > 50 | 20.8 | 29.2 |  | 1.24 | 
11 | CCOP(=O)(OCC)C(NC(=O)C(C)Oc1ccc2c(c1O)C(=O)c1ccccc1C2=O)c1cccc(OC)c1 (configuration not stated) | > 50 | > 50 | 36 | 17 | > 50 | 14.9 | 27.6 | > 50 | 5.78 | 
12 | CCOP(=O)(OCC)C(NC(=O)C(C)Oc1ccc2c(c1O)C(=O)c1ccccc1C2=O)c1ccc(C)cc1 (configuration not stated) | > 50 | > 50 | 38 | 37 | > 50 | 28.9 | 27.9 | > 50 | 0.99 | 
13 | CCOP(=O)(OCC)C(NC(=O)COc1ccc2c(c1O)C(=O)c1ccccc1C2=O)c1ccc(F)cc1 (configuration not stated) | > 50 | > 50 | 49 | 36.3 | > 50 | 47.9 | 30.9 |  | 6.45 | 
